{"source": "patent US20220218614A1", "about": "“IONIZABLE CATIONIC LIPIDS AND LIPID NANOPARTICLES, AND METHODS OF SYNTHESIS AND USE THEREOF” (Tidal Therapeutics, Inc., priority 2020, published 2022)", "key": {"[1]": {"assay": "Apparent pKa of LNPs by TNS fluorescent probe", "type": "physicochemical", "details": "LNP made with the named ionizable lipid; pH at 50% of maximum TNS fluorescence", "from_the_text": "This example describes the fluorescent dye based method used for measurement of the apparent pKa of the lipid nanoparticles. Apparent pKa determines the nanoparticle surface charge under physiological pH conditions, typically a pKa value in the endosomal pH range (6-7.4) results in LNPs that are neutral or slightly charged at plasma or the extracellular space (pH 7.4) and become strongly positive under acidic endosomal environments. This positive surface charge drives fusion of the LNP surface with negatively charged endosomal membranes resulting in destabilization and rupture of the endosomal compartment and LNP escape into the cytosolic compartment, a critical step in cytosolic delivery of mRNA and protein expression via engagement of the cells ribosomal machinery.\nThe apparent pKa of LNPs made using ionizable Lipids 2, 5 (synthesized as described in example 1), 6 and 7 (synthesized using method analogous to Lipid 2, 5, respectively, except using diethyl amine instead of dimethyl amine to incorporate the tertiary amine head group) were determined by 6-(p-Toluidino)-2-naphthalenesulfonic acid (TNS) fluorescence measurement in aqueous buffers covering a range of pH values (pH 4-pH 10). TNS is non-fluorescent when free in solution, but which fluoresces strongly when associated with a positively charged lipid nanoparticle. At a pH values below the pKa of the nanoparticle, positive LNP surface charge results in dye recruitment at the particle interface resulting in TNS fluorescence. At pH values above the LNP pKa no fluorescence is observed. The apparent pKa of the LNP is reported as the pH at which the fluorescence is at 50% of its maximum, as determined using a four-point logistic curve fit."}, "[2]": {"assay": "Quant-iT RiboGreen RNA assay: dye accessible and total (Triton) mRNA content, encapsulation", "type": "physicochemical", "description": "RNA content of the nanoparticles is measured using Thermo Fisher Quant-iT RiboGreen RNA Assay Kit. Dye accessible RNA, which includes both non-incorporated RNA and RNA that is near the surface of the nanoparticle, is measured by diluting the nanoparticles to approximately 1 μg/mL mRNA using HEPES buffered saline, and then adding Quant-iT reagent to the mixture. Total RNA content is measured by diluting the particles to 1 μg/mL mRNA using HEPES buffered saline, disrupting the nanoparticles by heating them to 60° C. for 30 minutes in HEPES buffered saline containing 0.5% Triton, and then adding Quant-It reagent. RNA is quantified by measuring fluorescence at 485/535 nm, and concentration is determined relative to a contemporaneously run RNA standard curve."}, "[3]": {"system": "primary human T-cells (CD3+ T cells)", "assay": "In vitro LNP transfection of primary human T-cells (GFP, Cy5 or DiI, viability by FACS)", "type": "cell-based", "from_the_text": "This example describes the protocol used for in vitro LNP transfections in primary human T-cells. This method is used to assess LNP in vitro efficacy in relevant target cells (CD3+ T cells) by first transfecting the cells using LNPs loaded with mRNA encoding for a reporter gene, such as GFP mRNA, and then assessing transfection by measuring reporter gene expression by fluorescence-[…] cell sorting (FACS). Additionally, particle association with cells may be observed by in the same assay by labeling individual nanoparticle components, such as the mRNA, with a fluorescent dye, such as Cy5, and then observing cell/dye association by FACS.\nCD3+ T cells were isolated from frozen peripheral blood mononuclear cells using an EasySep Human T Cell Isolation Kit on a RoboSep automated cell isolation system from […]. T cells were plated into a flat bottom 96-well plate in RPMI cell culture media supplemented with glutamax, 10% fetal bovine serum, and 40 ng/mL IL2. 100 μL of cell suspension was seeded per well at a density of 1M T cells/mL (100K T cells/well). Cells were allowed to rest for two hours in a 37° C. incubator, and then were transfected by gently adding 10 μL of a 22 μg/mL (by mRNA) nanoparticle suspension, resulting in a final mRNA concentration of 2 μg/mL. Cells were gently mixed with a pipette and then incubated for 24 hours in a 37° C. incubator. After incubation the cells were analyzed using an ThermoFisher Attune NXT flow cytometer. Cy5 was detected using a 638 nm laser with 670/14 nm filter. eGFP was detected using a 488 nm laser and a 530/30 nm filter. Data were analyzed using FlowJo software from BD biosciences. FACS data were first gated to exclude doublets and dead cells and then gated for GFP and Cy5. Gates for GFP+ and Cy5+were set such that a control sample (PBS treated T cells) was <0.1% positive.\nCD3+ T cells were isolated from frozen peripheral blood mononuclear cells using an EasySep Human T Cell Isolation Kit on a RoboSep automated cell isolation system from […]. T cells were plated into a round bottom 96-well plate in RPMI cell culture media supplemented with glutamax, 10% fetal bovine serum, pen-strep, and 40 ng/mL IL-2. 100 μL of cell suspension was seeded per well at a density of 1M T cells/mL (100K T cells/well). Cells were allowed to rest for two hours in a 37° C. incubator, and then were transfected by gently adding 10 μL of a 22 μg/mL (by mRNA) nanoparticle suspension, resulting in a final mRNA concentration of 2 μg/mL (unless otherwise noted). Cells were gently mixed with a pipette and then incubated for 24 hours in a 37° C. incubator. After incubation the cells were diluted with FACS buffer (BD 554657) and analyzed using a BD Fortessa flow cytometer. Data were analyzed using FlowJo software from BD biosciences."}, "[4]": {"details": "Table 10: Lipid 5 and Lipid 7 LNP, theoretical total mRNA 50 μg/mL"}}, "note": "Values joined by “and” are separate entries in the source; they are usually repeats but may differ in a detail not shown here. Identical values can stand only once. “Also recorded” adds a separate entry of the source."}
{"smiles": "CCCCC/C=C\\C/C=C\\CCCCCCCC(=O)OC[C@H](CCN(C)C)OC(=O)CCCCCCC/C=C\\C/C=C\\CCCCC", "note": "[Lipid 5]", "values": [{"measurement": "apparent pKa of LNP (TNS)", "setting": "[1]", "result": "6.9 and ~7"}, {"measurement": "% Dye Accessible mRNA", "setting": "[2]; Table 10: Lipid 5 and Lipid 7 LNP", "result": 23, "unit": "%"}, {"measurement": "Measured total (Triton method) mRNA", "setting": "[2]; [4]", "result": 43, "unit": "µg/mL"}, {"measurement": "Ribogreen Dye Accessible mRNA", "setting": "[2]; [4]", "result": 10, "unit": "µg/mL"}, {"measurement": "Measured total (Triton method) mRNA", "setting": "[2]; Table 11A: Lipid 5, Lipid 8 and DLn-MC3-DMA LNP, vortexer mixing, theoretical total mRNA 42.5 ug/mL", "result": 27, "unit": "µg/mL"}, {"measurement": "Ribogreen Dye Accessible mRNA", "setting": "[2]; Table 11A: vortexer mixing, theoretical total mRNA 42.5 ug/mL", "result": 4, "unit": "µg/mL"}, {"measurement": "GFP MFI, fold relative to DLn-MC3-DMA", "setting": "[3]; 0.5 ug/mL and 1.0 ug/mL dose/well", "result": "> 5", "unit": "fold"}, {"measurement": "T-cell viability", "setting": "[3]; all three dose levels (0.125, 0.5 and 2 ug mRNA/mL per well), PBS control about 50%", "result": "40-45%"}, {"measurement": "GFP protein expression (% GFP+ cells, GFP MFI), in words", "setting": "[3]; hSP34 targeted LNP with GFP mRNA, 24 hours", "result": "Dose dependent expression of GFP protein; also recorded: greater overall protein expression at all three mRNA dose levels; also recorded: outperformed both Lipid 8 and DLn-MC3-DMA"}, {"measurement": "LNP association with cells (% Cy5+/Cy5 MFI or % DiI+/DiI MFI), in words", "setting": "[3]; hSP34 targeted LNP, 24 hours", "result": "equally associated with cells"}, {"measurement": "T-cell viability / tolerability, in words", "setting": "[3]; hSP34 targeted LNP, 24 hours, dose as in the value", "result": "well tolerated by T-cells at and below 0.5 μg/mL dose; also recorded: consistently better tolerated by T-cells; also recorded: well tolerated by T-cells at and below 1.0 μg/mL dose; also recorded: better tolerated at higher doses; also recorded: least toxic at 1 ug/mL dose"}]}
